This note sets out measurements from ChEMBL document CHEMBL5096183, “Contemporary advances of cyclic molecules proposed for inflammation” (Eur J Med Chem, 2021).

Assay [1] has as its target T1, Prostaglandin G/H synthase 2 (Homo sapiens, UniProt P35354).
T1 sequence (P35354 whole entry): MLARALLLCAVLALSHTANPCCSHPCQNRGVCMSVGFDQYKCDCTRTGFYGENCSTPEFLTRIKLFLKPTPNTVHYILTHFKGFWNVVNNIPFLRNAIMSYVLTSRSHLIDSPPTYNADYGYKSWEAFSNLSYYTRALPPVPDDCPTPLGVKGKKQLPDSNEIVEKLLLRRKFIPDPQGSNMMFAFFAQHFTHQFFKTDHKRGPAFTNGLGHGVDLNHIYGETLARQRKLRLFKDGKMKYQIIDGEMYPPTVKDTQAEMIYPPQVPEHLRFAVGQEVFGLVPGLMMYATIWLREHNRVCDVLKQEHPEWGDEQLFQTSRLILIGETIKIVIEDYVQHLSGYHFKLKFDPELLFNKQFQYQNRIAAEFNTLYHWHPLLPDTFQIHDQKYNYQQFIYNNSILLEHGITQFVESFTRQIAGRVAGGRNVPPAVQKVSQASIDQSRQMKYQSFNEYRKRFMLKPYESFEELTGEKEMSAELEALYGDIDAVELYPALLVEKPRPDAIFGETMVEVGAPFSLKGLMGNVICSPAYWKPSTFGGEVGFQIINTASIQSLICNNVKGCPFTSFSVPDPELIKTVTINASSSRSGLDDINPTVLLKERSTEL
Nature of the assay: Inhibition of human recombinant COX-2.

Assay [2] deals with Rattus norvegicus. Nature of the assay: Anti-inflammatory activity against carrageenan-induced paw edema in rat.
In assay [3] the test system is Rattus norvegicus. Nature of the assay: Anti-inflammatory activity against carrageenan-induced paw edema in rat relative to control. Format: functional.
Assay [4] deals with Rattus norvegicus. Nature of the assay: Anti-inflammatory activity against carrageenan-induced paw edema in PO dosed Wistar albino rat measured after 2 hrs. Format: functional. On the technique in general: The carrageenan paw model is a standard test of acute inflammation.
Assay [5] deals with Mus musculus. Description: Anti-inflammatory activity against Carrageenan-induced paw edema in Swiss albino mouse assessed as change in paw volume at 10 mg/kg, PO measured for 3 to 6 hrs by plethysmometric analysis relative to control. In kind it is functional. The note with it: time 3-6 hrs.
Assay [6] relates to Rattus norvegicus. Description: Anti-inflammatory activity against formalin-induced foot paw edema in Wistar rat assessed as oedema inhibition at 10 mg/kg,po measured for 1 to 3 hrs by plethysmometric analysis relative to control. Format: functional. The following applies: time 1-3 hrs.
Assay [7] has as its system Mus musculus. Nature of the assay: Analgesic activity in hot plate induced thermal pain Swiss albino mouse model assessed as change in latency at 10 mg/kg, po measured at 1 to 2 hrs relative to control. The note with it: time 1-2 hrs. Format: functional.
Assay [8] addresses Epidermal growth factor receptor (Homo sapiens, UniProt P00533). Nature of the assay: Inhibition of recombinant EGFR (unknown origin) expressed in baculovirus incubated for 10 mins by europium-labeled antiphosphotyrosine/enhancement solution based assay.
A short description of assay [9]: Inhibition of mouse full-length GST-tagged BRAF V600E mutant incubated for 1 hrs.
The target in assay [10] is T2, Prostaglandin G/H synthase 1 (Ovis aries, UniProt P05979).
T2 sequence (P05979 whole entry): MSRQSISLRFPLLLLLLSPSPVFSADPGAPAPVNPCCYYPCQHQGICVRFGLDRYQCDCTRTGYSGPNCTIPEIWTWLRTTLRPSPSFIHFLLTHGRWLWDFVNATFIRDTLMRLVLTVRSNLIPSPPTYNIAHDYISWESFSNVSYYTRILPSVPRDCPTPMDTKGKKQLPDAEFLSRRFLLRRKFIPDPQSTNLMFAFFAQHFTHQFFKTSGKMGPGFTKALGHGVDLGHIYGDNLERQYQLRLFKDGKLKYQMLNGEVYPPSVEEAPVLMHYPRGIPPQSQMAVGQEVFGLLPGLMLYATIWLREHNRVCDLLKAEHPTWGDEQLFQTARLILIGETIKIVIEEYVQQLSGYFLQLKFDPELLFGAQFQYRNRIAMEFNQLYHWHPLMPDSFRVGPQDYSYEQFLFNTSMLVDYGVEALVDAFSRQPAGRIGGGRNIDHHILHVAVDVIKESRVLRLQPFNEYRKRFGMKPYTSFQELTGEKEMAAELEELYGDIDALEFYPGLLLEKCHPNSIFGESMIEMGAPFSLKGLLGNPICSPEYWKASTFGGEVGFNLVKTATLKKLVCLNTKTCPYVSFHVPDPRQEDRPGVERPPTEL
Description: Inhibition of ovine COX-1 preincubated for 10 mins followed by arachidonic acid addition for 2 mins.

The subject of assay [11] is Rattus norvegicus. Description: Anti-inflammatory activity against Carrageenan-induced paw edema in Wistar rat at 5 mg/kg, po pretreated for 30 mins followed by carrageenan addition after 4 hrs by Plethysmometric analysis relative to control. The following applies: time 4.5 hrs. Format: functional.

Chain of Epidermal growth factor receptor (P00533 whole entry): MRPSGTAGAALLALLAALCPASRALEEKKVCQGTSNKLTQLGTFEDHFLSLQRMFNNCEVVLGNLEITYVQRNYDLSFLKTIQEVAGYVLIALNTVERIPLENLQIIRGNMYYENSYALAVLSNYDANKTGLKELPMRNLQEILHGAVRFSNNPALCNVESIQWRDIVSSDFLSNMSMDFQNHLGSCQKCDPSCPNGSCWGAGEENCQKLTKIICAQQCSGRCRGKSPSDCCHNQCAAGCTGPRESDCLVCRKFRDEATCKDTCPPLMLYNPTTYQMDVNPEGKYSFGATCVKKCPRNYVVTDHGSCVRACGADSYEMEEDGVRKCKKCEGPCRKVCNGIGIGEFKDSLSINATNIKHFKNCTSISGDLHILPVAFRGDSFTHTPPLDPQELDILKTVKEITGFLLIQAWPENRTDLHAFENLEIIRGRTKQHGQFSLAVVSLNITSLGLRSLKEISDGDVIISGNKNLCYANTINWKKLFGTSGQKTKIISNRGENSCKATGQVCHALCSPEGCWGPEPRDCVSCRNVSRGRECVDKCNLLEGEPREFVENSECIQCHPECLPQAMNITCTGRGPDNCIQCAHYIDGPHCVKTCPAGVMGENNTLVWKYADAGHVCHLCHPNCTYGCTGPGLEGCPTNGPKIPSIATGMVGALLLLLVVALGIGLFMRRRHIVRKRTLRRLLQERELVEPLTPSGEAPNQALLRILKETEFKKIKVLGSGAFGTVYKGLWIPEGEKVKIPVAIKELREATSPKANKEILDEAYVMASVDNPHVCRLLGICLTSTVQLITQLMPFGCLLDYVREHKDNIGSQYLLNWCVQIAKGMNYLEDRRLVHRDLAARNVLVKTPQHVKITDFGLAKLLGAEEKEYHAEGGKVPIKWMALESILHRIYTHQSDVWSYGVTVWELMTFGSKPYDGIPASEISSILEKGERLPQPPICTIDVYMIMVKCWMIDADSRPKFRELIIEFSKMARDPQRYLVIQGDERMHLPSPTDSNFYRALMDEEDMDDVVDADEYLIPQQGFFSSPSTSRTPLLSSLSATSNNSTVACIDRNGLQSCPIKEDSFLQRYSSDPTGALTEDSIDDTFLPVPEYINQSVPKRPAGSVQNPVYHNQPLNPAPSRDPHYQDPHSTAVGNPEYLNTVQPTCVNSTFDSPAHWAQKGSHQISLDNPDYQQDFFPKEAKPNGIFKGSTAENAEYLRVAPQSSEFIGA

The IC50 is the concentration that gives 50% inhibition. Regarding `COc1ccc(/C=C/C(=O)c2cc(-n3cc(CN4C(=O)C(=O)c5ccccc54)nn3)ccc2O)cc1`, the IC50 in assay [1] is 37 nM.

A word on the ED50: it is the dose that gives a 50% effect, or the effect in half of the subjects. Low values mean greater potency, high ones weaker potency. On to `Cc1ccc(-c2cc(C(F)(F)F)nn2-c2ccc(S(N)(=O)=O)cc2)cc1` [CELECOXIB], for which the ED50 came out at 34.1 mg/kg with Rattus norvegicus [2] and 32 µmol/kg in the assay on Rattus norvegicus [4]. Besides, the Activity turned out to be 83.4% in the assay with Rattus norvegicus [3] and 32% in the assay on Mus musculus [5].

What is called inhibition in vivo is the change of the read-out against control, counted positive when it falls. As to `COc1ccc(/C=C/C(=O)c2cccc(N3C(=O)c4ccccc4C3=O)c2)cc1OC`, the figures for the inhibition in vivo at 10 mg/kg with Rattus norvegicus [6] and in the assay on Mus musculus [7] were 45% and 45.8%, respectively.

On to `Cc1ccc(/C=N/NC(=O)CNc2nc(-c3ccccc3)c(-c3ccccc3)s2)cc1`, for which the IC50 in [8] is 200 nM; in assay [9] it was 1700 nM.

In the case of `CC1=NN(c2cccc(Cl)c2)C(=O)/C1=C\c1cn(-c2nc(N3CCOCC3)nc(N3CCOCC3)n2)c2ccccc12`, the IC50 in [10] was 20000 nM.

Consider `COc1ccc(-c2cc(-c3ccccc3)nn2CC(=O)Nc2ccc(S(N)(=O)=O)cc2)cc1`, for which the inhibition in vivo at 5 mg/kg in the assay with Rattus norvegicus [11] came out at 81%.
